Measured values as given in patent US20130095068A1, “AGENT FOR TREATING HCV INFECTION” (priority 2010, published 2013).
“Also recorded” adds a separate entry of the source.

Assays:
[1] = tested on: genotype 1b HCV auto-replicating subgenomic replicon (luc-ubi-neo/ET replicon cells); experiment: Replicon assay, luciferase activity in luc-ubi-neo/ET HCV subgenome replicon cells; type: cell-based, Hepatitis C virus; conditions: for EC50: Hepatitis C virus, 72 h, read-out: HCV replication inhibitory activity EC50; for Selectivity IC50/EC50 / Luciferase activity: Test compound alone; for Luciferase activity: 72 hours, percentage of solvent alone
Text: The inhibitory-effect on HCV replication and the cytotoxicity of a compound of formula (I) of the invention was examined by a replicon assay using HCV subgenome replicon cells.
(§1) The HCV subgenome replicon cells used were luc-ubi-neo/ET replicon cells, having the genotype 1b HCV auto-replicating subgenomic replicon, a luciferase reporter, ubiquitin, a neomycin phosphotransferase coding sequence, and three mutations for cell culturing (Pietschmann, T. et al., J. Virol. 76:4008-4021, 2002). The ET replicon cells were cultured in DMEM containing 10% FBS, 1% penicillin/streptomycin, 1% glutamine, and 250 μg/mL G418 in an incubator at 37° C., 5% CO2. For culturing with a Test compound of formula (I), it was performed under the same conditions in DMEM containing 5% FBS, 1% penicillin/streptomycin and 1% glutamine. The ET replicon cells were cultured in two 96-well plates, at 5000 cell/well, separately. On the following day, the Test compound alone diluting to different concentrations with a maximum concentration of 1.1 μM, was added to one plate, while human recombinant Interferon-α-2b (rIFNα-2b) at a fixed concentration of 0.1 IU/mL was added to another plate with the Test compound, simultaneously. At 72 hours after addition, the luciferase activity indicating amplification of HCV mRNA was measured. The cytotoxicity was measured with a CytoTox-1 Cell Proliferation Assay (Promega Corporation).
The luciferase activities, for the compound of formula (I) alone and for a combination of the compound of formula (I) and rIFNα-2b, were shown in Table 1 as percentage with respect to luciferase activity when using the solvent alone. The HCV replication inhibitory-activity was determined as the concentration which produced 50% inhibition of HCV replicon (EC50), and the cytotoxicity was determined as the concentration which produced 50% reduction in viable cells (IC50), while the selectivity was determined as the value of IC50/EC50; the results are summarized in Table 2.

[2] = tested on: HCV subgenomic replicon (LucNeo#2 replicon cells); experiment: Replicon assay, intracellular luciferase activity in LucNeo#2 replicon cells; type: cell-based, Hepatitis C virus; conditions: for Luciferase activity: 72 hours, percentage of solvent-treated group; for HCV replication inhibitory-activity (in words): LucNeo#2 replicon cells, 3.3 and 10 μM
Text: The inhibitory-effect on HCV replication and the cytotoxicity of a compound of formula (I) of the invention were examined by a replicon assay method using different HCV subgenomic replicon cells from Example 1, specifically LucNeo#2 replicon cells. The LucNeo#2 replicon cells are reporter cells created with the same concept as the luc-ubi-neo/ET replicon cells used in Test Example 1, and are utilized for analysis of the RNA replication mechanism of HCV or anti-HCV drug evaluation, but the gene sequence differs from that of luc-ubi-neo/ET replicon cells (Biochem. Biophys. Res. Commun. 343 (2006) 879-884).
(§2) LucNeo#2 replicon cells cultured to confluency were recovered by trypsin treatment, and were spread on a collagen-coated plate at a density of 20,000 cells/mL. The cell culture was conducted in an incubator at 37° C., 5% CO2, with 10% FCS/DMEM (containing mixed solution of penicillin-streptomycin, G418 and a non-essential amino acid). After 24 hours, the cells were rinsed and a compound of formula (I) was added as Test compound to final concentrations of 3.3 μM or 10 μM. At 72 hours after addition of the Test compound, the cells of one plate were rinsed, the cells were lysed with M-PER, and the intracellular luciferase activity was measured using a Promega kit. An Alamar Blue solution was also added to cells cultured under the same conditions, and the cytotoxicity was examined.
(§3) The intracellular luciferase activity and the Alamar Blue signal for cytotoxicity at 72 hours after Test compound addition were shown in Table 3 as a percentage with respect to the solvent-treated group.

LucNeo#2 replicon cells = experiment: Cytotoxicity, Alamar Blue in LucNeo#2 replicon cells; type: cell-based; conditions: 72 hours, percentage of solvent-treated group
Procedure: as §2, §3

[3] = Cytotoxicity, CytoTox-1 Cell Proliferation Assay in ET replicon cells; type: cell-based; conditions: human, luc-ubi-neo/ET HCV genotype 1b subgenomic replicon cells; Test compound alone, 50% reduction in viable cells, maximum concentration 1.1 μM
Procedure: as §1, with “Corporation). […]” for “Corporation).”

HCV 1b genotype = experiment: Lowering effect on serum HCV RNA levels in HCV-infected human hepatocyte-transplanted mice (PXB mice); type: in vivo, Hepatitis C virus; conditions: oral; for Change in serum HCV RNA levels, average: day 14 versus day 0
Procedure: The lowering effect on serum HCV RNA levels was measured to determine the HCV replication inhibitory-effect of a compound of formula (I) of the invention were determined by measuring the serum HCV RNA levels.
Human hepatocyte-transplanted model mice (PXB mice) were prepared from uPA^+/+/SCID mice as host mice. The uPA^+/+/SCID mice are characterized by a combination of liver damage and serious immune deficiency complications. Commercially available frozen human hepatocytes (BD Biosciences, MA, USA) were grafted by infusion into the spleens of male or female uPA^+/+/SCID mice that had reached a postnatal age of 2 to 4 weeks, to create human hepatocyte-transplanted mice (PXB mice) having at least 70% of the mouse liver parenchymal cells replaced with human hepatocytes. […] HCV 1b genotype-infected patient serum (PhoenixBio) was injected through the orbital socket to a virus titer of 1×10^4 copies/mouse as measured by RT-PCR (Life Technologies Corporation, Carlsbad, USA), for the HCV infection. […] […] The number of mice per group was five. The solvent alone was used as a negative control. Administration was done once per day for 14 consecutive days. With the initial administration as day 0, blood was collected on day 0, 1, 3, 7, 10, 14, 17 and 21, and the serum HCV RNA levels were measured.
The percent change of blood HCV RNA levels in 14 days, which was 24 hours after final dosing (13 day), from those in day 0, which was predose, was calculated for each individual.

[4] = used in combination with rIFNα-2b

Row | SMILES | EC50 [1] | Selectivity IC50/EC50 [1] | Luciferase activity ([1]; 0.001 μM) | Luciferase activity ([1]; 0.003 μM) | Luciferase activity ([1]; 0.03 μM) | Luciferase activity ([1]; 0.11 μM) | Luciferase activity ([1]; 0.35 μM) | Luciferase activity ([1]; 1.1 μM) | HCV replication inhibitory-activity (in words) ([1]; Test compound used alone) | HCV replication inhibitory-activity (in words) [1, 4] | Luciferase activity ([2]; 3.3 μM) | Luciferase activity ([2]; 10 μM) | HCV replication inhibitory-activity (in words) [2] | Cytotoxicity (Alamar Blue signal) (LucNeo#2 replicon cells; 3.3 μM) | Cytotoxicity (Alamar Blue signal) (LucNeo#2 replicon cells; 10 μM) | IC50 at 72 h [3] | Change in serum HCV RNA levels, average (HCV 1b genotype; 10 mg/kg/day once per day for 14 days) | Change in serum HCV RNA levels, average (HCV 1b genotype; 30 mg/kg/day once per day for 14 days) | Change in serum HCV RNA levels, average (HCV 1b genotype; 100 mg/kg/day once per day for 14 days) | Serum HCV RNA level (in words) (HCV 1b genotype; 14 days)
1 | COc1cc(/C=C2\CC[C@H]3COC[C@@H](c4cc(F)c(F)c(F)c4)N3C2=O)ccc1-n1cnc(C)c1 [Test compound B, (E)-(4R,9aS)-7-[3-methoxy-4-(4-methyl-1H-imidazol-1-yl)benzylidene]-4-(3,4,5-trifluorophenyl)hexahydropyrido[2,1-c][1,4]oxazin-6-one] | 310 nM | >3.55 | 72% | 73% | 62% | 68% | 48% | 30% | approximately dose-dependent HCV replication inhibitory-activity; also recorded: potent HCV replication inhibitory-activity at lower concentrations than the concentrations for the cytotoxicity | more potent reduction of HCV replication with dose-dependent manner; also recorded: even more potent HCV replication inhibitory-activity at lower concentrations than the concentrations for the cytotoxicity | 50.30% | 27.80% | potent HCV replication inhibitory-activity by reducing the luciferase activity in a dose-dependent manner | 101.00% | 100.75% | > 1100 nM |  |  |  | 
2 | COc1cc(/C=C2\CCCN([C@@H](C)c3ccc(F)cc3)C2=O)ccc1-n1cnc(C)c1 [Test compound A, (E)-1-[(1S)-1-(4-fluorophenyl)ethyl]-3-[3-methoxy-4-(4-methyl-1H-imidazol-1-yl)benzylidene]piperidin-2-one] | 360 nM | >3.06 | 87% | 89% | 87% | 89% | 51% | 21% | approximately dose-dependent HCV replication inhibitory-activity; also recorded: potent HCV replication inhibitory-activity at lower concentrations than the concentrations for the cytotoxicity | more potent reduction of HCV replication with dose-dependent manner; also recorded: even more potent HCV replication inhibitory-activity at lower concentrations than the concentrations for the cytotoxicity | 116.60% | 42.80% | potent HCV replication inhibitory-activity by reducing the luciferase activity in a dose-dependent manner | 100.00% | 101.50% | > 1100 nM | 73.0% | 50.4% | 32.6% | dose-dependent reduction in serum HCV RNA level
